Here are results for 20 compounds from patent US20090318509A1, “Oxime Derivatives as Inhibitors of Macrophage Migration Inhibitory Factor” (priority 2006, published 2009).

“Also recorded” adds a separate entry of the source. Like-named read-outs stand apart in the source and are kept apart here.

The target of data set [1] is T1, MIF (Homo sapiens, UniProt P14174).
T1 sequence (P14174 2-115 limits assumed): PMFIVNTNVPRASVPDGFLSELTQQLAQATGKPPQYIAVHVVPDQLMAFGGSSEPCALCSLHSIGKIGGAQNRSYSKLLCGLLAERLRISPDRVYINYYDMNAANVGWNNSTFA
As to the kind of experiment: MIF dopachrome tautomerase activity inhibition. Format: biochemical. On the set-up: 1 μL of MIF solution (800-900 ng/mL). As to the method: MIF tautomerase activity was measured by UV-Visible recording spectrophotometry (SHIMADZU, UV 1600U). A fresh stock solution of L-dopachrome methyl ester was prepared at 2.4 mM through oxidation of L3,4-dihydroxyphenylalanine methyl ester with sodium periodate. 1 μL of MIF solution (800-900 ng/mL) and 1 μL of a DMSO solution with various concentrations of the enzymatic inhibitor were added into a plastic cuvette (10 mm, 1.5 mL) containing 0.7 mL assay buffer (1× potassium phosphate, pH 7.2). The L-dopachrome methyl ester solution (0.3 mL) was added to the assay buffer mixture.

In data set [2] the test system is TNF release by LPS-treated macrophages. Conditions: in vitro; cited from earlier work.
The next data set has as its system endotoxemia and sepsis. The settings on record: intraperitoneal, 40 mg/kg; Al-Abed et al., 2005; cited from earlier work.
A further data set in a line: antibacterial effect. Conditions: preliminary studies.
The next data set concerns CLP sepsis. As to the kind of experiment: cecal ligation and puncture (CLP) sepsis survival. Format: in vivo. Conditions: mice, intraperitoneal, first injection 24 hours after CLP, further injections day 2 and 3, FIG. 6. As to the method: FIG. 6 is a graph showing that Cyc-Oxi-II is protective even when given 24 h after the induction of sepsis.
An additional two injections were given, on day 2 and day 3. Thirteen mice were tested.

A short description of data set [3]: preliminary acute toxicity screening. Format: in vivo. The source says: Design of Cyc-Oxi-11. ISO-1, the pharmacological inhibitor of MIF, neutralizes exogenous and endogenous MIF in in vitro and in vivo models. This indicates the successful application of chemical approaches to antagonize MIF biological activities. Although ISO-1 has significant anti-inflammatory activity, development of better inhibitors was desired. […] Representative structures of the novel oxime scaffold are presented in Table I, with their IC50 of inhibiting MIF dopachrome tautomerase activity.

Data set [4] relates to TNF release by LPS-stimulated human macrophages. The experiment in a line: TNF release from LPS-stimulated macrophages. It is filed as cell-based. Conditions: FIG. 4. As to the method: (§1) TNF-α production was then measured. The data shown are mean ±SD of triplicate wells in experiments that were repeated twice.
It has been shown that the macrophage is an abundant source of MIF (Calandra et al., 1994), which is released after LPS stimulation. This led to an examination of the autocrine and paracrine activity of secreted MIF in vitro.

Data set [5] concerns the target T1, MIF. As to the kind of experiment: MIF glucocorticoid-regulating (proinflammatory) activity in LPS-treated macrophages, TNF-α production. Format: cell-based. On the set-up: dexamethasone plus MIF (3 nM purified native MIF); host or cells: added to monocyte-derived macrophages from human peripheral blood. As to the method: as §1
The mark [6] stands for this setting: Table 2, additional MIF inhibitors, read-out: IC50 MIF inhibitory activity in vitro.
The mark [7] stands for this setting: Table 1, left column pair, read-out: IC50 inhibition of MIF tautomerase activity.

On to `COc1ccc(C(=O)ONC(=O)OC(C)(C)C)cc1` [BKII-99], for which the IC50 at MIF [1] (setting [6]) was found to be 1200 nM.

For `COc1ccc(C(=O)ON=Cc2ccc(O)cc2)cc1` [Compound 4], the IC50 at MIF [1] (read-out: IC50 of MIF dopachrome tautomerase activity) is 1100 nM.

In the case of `CC(C)(C)OC(=O)NOC(=O)c1ccc(F)cc1` [BKIII-8W], the IC50 on MIF [1] (setting [6]) turned out to be 270 nM.

With `CC(C)(C)OC(=O)NOC(=O)c1ccc(C(F)(F)F)cc1` [BKIII-9W], the IC50 at MIF [1] (setting [6]) is 69000 nM.

In the case of `COC(=O)C[C@@H]1CC(c2ccc(O)cc2)=NO1` (racemic) [ISO-1, (S,R)-3-(4-hydroxyphenyl)-4,5-dihydro-5-isoxazole acetic acid methyl ester], the “inhibition of TNF release” value in data set [2] is given as 60%. For the same compound, the survival rate result with endotoxemia and sepsis is “increased the survival rate”.

For the compound `CC(C)(C)OC(=O)NOC(=O)c1ccc(Cl)cc1` [BKIII-8Y], the IC50 on MIF [1] (setting [6]) stood at 870 nM.

As for `CC(C)(C)OC(=O)NOC(=O)c1ccccc1` [BKII-98], the IC50 on MIF [1] (setting [6]) was found to be 230 nM.

With `CC(C)(C)OC(=O)NOC(=O)C1CCCCC1` [BKII-85], the concentration for half-maximal inhibition (IC50) at MIF [1] (setting [6]) was found to be 19500 nM.

Take `CC(C)(C)OC(=O)NOC(=O)c1ccc(I)cc1` [BKIII-9Y]: the IC50 on MIF [1] (setting [6]) is 1700 nM.

`CC(C)(C)OC(=O)NNC(=O)C1CCCCC1` [BKII-90]: on MIF [1] (setting [6]), the concentration for half-maximal inhibition (IC50) worked out at 60000 nM.

Consider `O=C(O/N=C/c1ccc(O)cc1)C1CCCCC1` [Cyc-Oxi-11, (E)-4-hydroxybenzaldehyde O-cyclohexanecarbonyloxime], for which, in “antibacterial effect”, the antibacterial effect result is recorded as “negative”. Further, the “deaths / protection after CLP” value is listed as “considerably reduced the deaths caused by CLP” in the data set on CLP sepsis and “protective” in the data set on CLP sepsis (listed as Cyc-Oxi-II). Further, the “potency versus ISO-1 in MIF tautomerase inhibition” value on MIF [1] (relative to ISO-1) was 30 fold. For the same compound, in data set [3] (doses up to 100 mg/Kg), the “acute toxicity, intraperitoneal injection” value was “no evidence of toxicity”. Moreover, the “toxicity at high doses” value in data set [3] (high doses, both in vitro and in vivo) is listed as “lacks obvious toxicity”. The “inhibition of TNF release” value in data set [4] is on record as “inhibits TNF release in vitro; also recorded: in a dose-dependent manner, inhibits TNF release; also recorded: inhibits MIF induction of TNF release”. For the same compound, the “inhibition of MIF-dependent interference with glucocorticoids” value at MIF [5] (LPS-stimulated human macrophages, FIG. 3) is recorded as “significantly inhibited; also recorded: suppresses the ability of MIF to regulate glucocorticoids”. At MIF [5] (relative to ISO-1), the “potency versus ISO-1 as inhibitor of MIF proinflammatory activity in vitro” value was determined as 30 fold.

Turning to `COc1ccc(OC(=O)O/N=C/c2ccc(O)c(F)c2)cc1` [Compound 5, (E)-3-fluoro-4-hydroxybenzaldehyde O-4′-methoxyphenyl carbonyloxime], the “improvement of inhibition of dopachrome tautomerase activity over parent compound” value on MIF [1] (mono-fluorinated analogue versus parent) worked out at 63%.

`O=C(O/N=C/c1ccc(O)cc1)C1CCCC1`: the half-inhibitory concentration (IC50) on MIF [1] (setting [7]) turned out to be 4800 nM.

As for `CC(C)(C)OC(=O)NOC(=O)C1CC1` [BKII-91], the concentration for half-maximal inhibition (IC50) on MIF [1] (setting [6]) is 1900 nM.

With `CC(C)(C)OC(=O)NOC(=O)C1CCCC1` [BKII-93], the IC50 on MIF [1] (setting [6]) is 700 nM.

As to `CC(C)(C)OC(=O)NOC(=O)c1ccc(OC(=O)c2ccc(O)cc2)cc1` [BKIII-6Y], the IC50 on MIF [1] (setting [6]) was 50000 nM.

On to `CC(C)(C)OC(=O)NOC(=O)c1ccc(Br)cc1` [BKIII-11Y], for which the IC50 at MIF [1] (setting [6]) stood at 1300 nM.

For `CC(C)(C)OC(=O)NOC(=O)C1CCC1` [BKII-92], on MIF [1] (setting [6]), the half-maximal inhibitory concentration (IC50) worked out at 370 nM.

With `O=C(O/N=C/c1ccc(O)cc1)C1CCC1`, the half-maximal inhibitory concentration (IC50) at MIF [1] (setting [7]) was found to be 12000 nM.

For `CC(C)(C)OC(=O)NOC(=O)c1c(F)c(F)c(F)c(F)c1F` [BKIII-6W], on MIF [1] (setting [6]), the half-inhibitory concentration (IC50) is 118000 nM.

By IC50 is commonly meant the concentration that inhibits the measured activity by half.
